Some test systems named below: HCT-15; ACHN; SF-268; NCI-H23; U-251; M14; OVCAR-8; SK-MEL-5; SNB-75; HCC 2998; OVCAR-4; HOP-62; IGROV-1; HCT-116; HL-60; SR.
Common to all, as to assay: inhibition of tumour cell growth, NCI panel, 48 h

14 compounds from ChEMBL document CHEMBL1201862, “PubChem BioAssay data set” (2004) can be followed below.

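All cell lines were grown in 96-well plates and treated with compound for 48 hours. GI50 = concentration required for 50% inhibition of growth.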 Active and inactive are the calls of the source. Rule as the data show it: active = GI50 up to about 1.1 µM and inactive = higher.

Consider `COc1ccc(C=C2C(=O)OC(C)(C)OC2=O)cc1OC`, for which the GI50 in the test on HCT-15 is above 100 µM; with ACHN, > 100 µM (inactive); in the test on SF-268, > 100 µM (inactive); in the test on NCI-H23, > 100 µM (inactive); in the test on U-251 it was > 100 µM (inactive); in the test with M14 it was > 100 µM (inactive). Moreover, the GI50 was > 100 µM (inactive) in the test on OVCAR-8; > 100 µM (inactive) with SK-MEL-5; 80.7 µM (inactive) in the test on SNB-75; > 100 µM (inactive) with HCC 2998; > 100 µM (inactive) with OVCAR-4; > 100 µM (inactive) with HOP-62. Also, in the test on IGROV-1, the GI50 was > 100 µM (inactive).
For the compound `Cc1ccc(NC(=O)C(=O)Cc2nc3ccccc3o2)c(C)c1`, the GI50 in the test on HCT-15 is above 100 µM; in the test with ACHN it was > 100 µM (inactive); with SF-268 it was > 100 µM (inactive); in the test on NCI-H23, > 100 µM (inactive); with U-251 it was > 100 µM (inactive); with M14, > 100 µM (inactive). Moreover, the GI50 in the test on OVCAR-8, with HCT-116, in the test with SNB-75, with HCC 2998, with OVCAR-4 and in the test with HOP-62 was > 100 µM (inactive) in each case. Besides, the GI50 in the test on IGROV-1 was > 100 µM (inactive).
With `O=c1/c(=C/c2c(O)ccc3ccccc23)sc2nc3ccccc3n12`, the GI50 in the test with HCT-15 is above 100 µM; with HL-60, > 100 µM (inactive); in the test with ACHN, > 100 µM (inactive); in the test on SF-268 it was > 100 µM (inactive); in the test with NCI-H23, > 100 µM (inactive); in the test on U-251 it was > 100 µM (inactive). Further, the GI50 in the test on M14, with OVCAR-8, with SK-MEL-5, in the test with HCT-116, with SNB-75 and in the test on HCC 2998 was > 100 µM (inactive) in each case. Moreover, the GI50 with OVCAR-4, with HOP-62 and with IGROV-1 was > 100 µM (inactive) each time.
For `O=[PH](O)c1ccsc1`, the GI50 is above 100 µM in the test with HCT-15; > 100 µM (inactive) in the test on HL-60; > 100 µM (inactive) in the test with ACHN; > 100 µM (inactive) in the test with SF-268; > 100 µM (inactive) in the test on NCI-H23; > 100 µM (inactive) with U-251. The GI50 in the test on M14, in the test on OVCAR-8, in the test on SK-MEL-5, with HCT-116, in the test with HOP-62 and in the test on IGROV-1 was > 100 µM (inactive) in each case.
With `COc1cc(C(C#N)NNc2nc(C)cc(O)n2)cc(OC)c1OC` (stereo not drawn), the GI50 in the test with HCT-15 is above 100 µM; with HL-60, > 100 µM (inactive); in the test with ACHN it was > 100 µM (inactive); in the test with SF-268 it was > 100 µM (inactive); in the test on NCI-H23 it was > 100 µM (inactive); in the test on U-251, > 100 µM (inactive). Besides, the GI50 was > 100 µM (inactive) in the test on M14; > 100 µM (inactive) in the test with OVCAR-8; > 100 µM (inactive) in the test on SK-MEL-5; > 100 µM (inactive) in the test on HCT-116; 37.2 µM (inactive) in the test on SNB-75; 37.5 µM (inactive) with SR. The GI50 in the test on OVCAR-4, in the test with HOP-62 and with IGROV-1 was > 100 µM (inactive) throughout.
Consider `O=C1CCC2CCc3cccc4oc1c2c34` (stereo not drawn), for which the GI50 was above 100 µM in the test on HCT-15; > 100 µM (inactive) with HL-60; > 100 µM (inactive) in the test with ACHN; > 100 µM (inactive) with NCI-H23; > 100 µM (inactive) in the test on U-251; > 100 µM (inactive) in the test with M14. Further, the GI50 with OVCAR-8, in the test on SK-MEL-5, in the test with HCT-116, with SNB-75, with HCC 2998 and with OVCAR-4 was > 100 µM (inactive) throughout. The GI50 in the test with HOP-62 and in the test with IGROV-1 was > 100 µM (inactive) in each case.
Turning to `CCOc1cc(/C=C/C=C/C=C/c2ccc(N(C)C)cc2)[s+]c2ccccc12`, the GI50 is 26.4 µM in the test with HCT-15; 1.72 µM (inactive) in the test on HL-60; 35.6 µM (inactive) with ACHN; 13.5 µM (inactive) in the test on SF-268; 29.9 µM (inactive) with NCI-H23; 31.8 µM (inactive) in the test on U-251. Moreover, the GI50 with M14 is 19.7 µM (inactive); in the test on OVCAR-8, 27.6 µM (inactive); in the test on SK-MEL-5, 24 µM (inactive); in the test on HCT-116, 17.7 µM (inactive); with SNB-75 it was 32 µM (inactive); in the test on HCC 2998, 48.2 µM (inactive). For the same compound, the GI50 in the test with OVCAR-4 is 19.3 µM (inactive); in the test with HOP-62 it was 95.5 µM (inactive); in the test on IGROV-1 it was 37.5 µM (inactive).
`O=C(CN(c1ccccc1)c1ccccc1)n1nnc2ccccc21`: the GI50 in the test on HCT-15 is 39.7 µM; in the test on HL-60, 29.5 µM (inactive); in the test with ACHN it was 36.5 µM (inactive); in the test on SF-268, 28.4 µM (inactive); with NCI-H23 it was 45.1 µM (inactive); with U-251, 26.1 µM (inactive). For the same compound, the GI50 was 52.8 µM (inactive) in the test with M14; 39.3 µM (inactive) in the test on OVCAR-8; 20.7 µM (inactive) in the test with SK-MEL-5; 24.3 µM (inactive) with HCT-116; 27 µM (inactive) with SNB-75; 49.8 µM (inactive) in the test with HCC 2998. The GI50 in the test on SR is 24.8 µM (inactive); in the test with HOP-62, > 100 µM (inactive); in the test on IGROV-1 it was 52.4 µM (inactive).
Consider `COCCNC(=O)C1C(=O)C(=O)N(CCOC)C1=O` (stereo not drawn), for which the GI50 in the test on HCT-15 is above 100 µM; in the test on ACHN, > 100 µM (inactive); with SF-268, > 100 µM (inactive); in the test on NCI-H23, > 100 µM (inactive); with U-251 it was > 100 µM (inactive); in the test on M14 it was > 100 µM (inactive). The GI50 with OVCAR-8, in the test on SK-MEL-5, in the test on HCT-116, in the test with SNB-75, in the test with HCC 2998 and in the test with SR was > 100 µM (inactive) each time. The GI50 in the test with OVCAR-4, in the test with HOP-62 and with IGROV-1 was > 100 µM (inactive) throughout.
Consider `CC(C)CC(NC(=O)OC(C)(C)C)C(=O)Nc1ccc(Nc2nc(F)nc(-c3c4ccccc4c4n3CCS4)n2)cc1` (stereo not drawn), for which the GI50 in the test with HCT-15 was 16.3 µM; in the test with HL-60 it was 21.9 µM (inactive); in the test with ACHN, 24.3 µM (inactive); in the test on SF-268, 31.4 µM (inactive); in the test on NCI-H23, 18.7 µM (inactive); with U-251, 18.8 µM (inactive). In addition, the GI50 with M14 was 20.2 µM (inactive); in the test with OVCAR-8, 22 µM (inactive); with SK-MEL-5, 23.7 µM (inactive); in the test on HCT-116 it was 23.5 µM (inactive); in the test with SNB-75, 22.2 µM (inactive); in the test with HCC 2998, 18 µM (inactive). Moreover, the results for the GI50 in the test on SR, with HOP-62 and in the test with IGROV-1 were 14.1 µM (inactive), 21.2 µM (inactive) and 24 µM (inactive), respectively.
As to `O=C(O)CCSC(=O)Nc1cccc([N+](=O)[O-])c1`, the GI50 was 44.2 µM with HCT-15; > 100 µM (inactive) in the test with HL-60; 52.7 µM (inactive) in the test on ACHN; 17 µM (inactive) in the test with SF-268; > 100 µM (inactive) in the test on NCI-H23; > 100 µM (inactive) in the test with U-251. For the same compound, the GI50 with M14, in the test with OVCAR-8, with HCT-116, in the test on SNB-75, in the test on HCC 2998 and in the test with SR was > 100 µM (inactive) each time. Further, the values for the GI50 with OVCAR-4, in the test on HOP-62 and in the test with IGROV-1 were 60.8 µM (inactive), > 100 µM (inactive) and 72.6 µM (inactive), respectively.
As for `N#CC(C(=O)CCC(=O)Nc1ccc(Cl)c(Cl)c1)c1ccccc1` (stereo not drawn), the GI50 in the test with HCT-15 was above 100 µM; with HL-60, > 100 µM (inactive); with ACHN, > 100 µM (inactive); in the test with SF-268, > 100 µM (inactive); with NCI-H23, > 100 µM (inactive); with U-251, > 100 µM (inactive). Also, the GI50 with M14, in the test on OVCAR-8, in the test on SK-MEL-5, with HCT-116, in the test with SNB-75 and with HCC 2998 was > 100 µM (inactive) each time. The GI50 with OVCAR-4, in the test on HOP-62 and in the test on IGROV-1 was > 100 µM (inactive) in each case.
For the compound `O=C1CC23CCCCCCCCCCC2(C1)CC(=O)C3` (stereo not drawn), the GI50 in the test on HCT-15 is 27.3 µM; in the test on HL-60 it was 17.4 µM (inactive); in the test with ACHN it was 29 µM (inactive); with SF-268, 51.9 µM (inactive); in the test with NCI-H23, 32.1 µM (inactive); in the test on U-251 it was 22.8 µM (inactive). The GI50 with M14 is 16.6 µM (inactive); with OVCAR-8, 31.2 µM (inactive); in the test with SK-MEL-5, 17.4 µM (inactive); in the test on HCC 2998, 32.7 µM (inactive); in the test with SR it was 19.9 µM (inactive); in the test with IGROV-1, 25.7 µM (inactive).
As for `COc1cc2c(cc1O)[C@H](C)C(c1ccccc1OC)O2` (stereo partly drawn), the GI50 in the test on HCT-15 is 3.34 µM; in the test with HL-60, 2.6 µM (inactive); with ACHN it was 4.34 µM (inactive); in the test on SF-268 it was 5.75 µM (inactive); in the test on NCI-H23 it was 6.31 µM (inactive); with U-251, 2.34 µM (inactive). Also, the GI50 with M14 was 3.45 µM (inactive); in the test with OVCAR-8, 10.3 µM (inactive); with SK-MEL-5, 3.16 µM (inactive); in the test on HCT-116, 3.86 µM (inactive); in the test on SNB-75, 2.49 µM (inactive); with HCC 2998, 12.1 µM (inactive). The GI50 is 8.32 µM (inactive) in the test with OVCAR-4 and 5.24 µM (inactive) in the test on IGROV-1.
